Assay results from patent US6911416B2, “Substituted N-benzoyl-n′(tetrazolylphenyl)-ureas and their use as pest control agents” (priority 2000, dated 2005).

How the values were obtained:
[1] = logP (pH2) determination by HPLC, EEC directive 79/831 Annex V. A8; type: physicochemical; conditions: for chromatographic logP / logP (pH2): pH2; for chromatographic logP: HPLC gradient acetonitrile/0.1% aqueous phosphoric acid, values in preparation examples, read-out: log P(pH2)
[2] = test system: fall armyworm (Spodoptera exigua) caterpillars; test: Spodoptera exigua test (dipped cabbage leaves); type: in vivo; conditions: active compound concentration 0.1%, after 6 days, cabbage leaves (Brassica oleracea)
Experimental: (§1) To produce a suitable active compound preparation, 1 part by weight of active compound is mixed with the stated amounts of solvent and emulsifier, and the concentrate is diluted with emulsifier-containing water to the desired concentration.
Cabbage leaves (Brassica oleracea) are treated by dipping into the active compound preparation of the desired concentration and are populated with fall armyworm (Spodoptera exigua) caterpillars while the leaves are still moist.
(§2) After the desired period, the destruction is determined in %. 100% means that all the caterpillars have been killed; 0% means that none of the caterpillars have been killed.

Heliothis virescens = Heliothis virescens test (dipped soya shoots); type: in vivo; conditions: active compound concentration 0.1%, after 6 days, soya shoots (Glycine max)
Experimental: as §1
Soya shoots (Glycine max) are treated by dipping into the active compound preparation of the desired concentration and are populated with Heliothis virescens while the leaves are still moist.
as §2

[3] = test system: diamond-back moth (Plutella xylostella) caterpillars; test: Plutella test (dipped cabbage leaves); type: in vivo; conditions: active compound concentration 0.1%, after 6 days, cabbage leaves (Brassica oleracea)
Experimental: as §1
Cabbage leaves (Brassica oleracea) are treated by dipping into the active compound preparation of the desired concentration and are populated with diamond-back moth (Plutella xylostella) caterpillars while the leaves are still moist.
as §2

[4] = test system: fall armyworm (Spodoptera frugiperda) caterpillars; test: Spodoptera frugiperda test (dipped cabbage leaves); type: in vivo; conditions: active compound concentration 0.1%, after 7 days, cabbage leaves (Brassica oleracea)
Experimental: Spodoptera frugiperda Test
as §1
Cabbage leaves (Brassica oleracea) are treated by dipping into the active compound preparation of the desired concentration and are populated with fall armyworm (Spodoptera frugiperda) caterpillars while the leaves are still moist.
as §2

[5] = test system: mustard beetle (Phaedon cochleariae) larvae; test: Phaedon larvae test (dipped cabbage leaves); type: in vivo; conditions: active compound concentration 0.1%, after 7 days, cabbage leaves (Brassica oleracea)
Experimental: as §1
Cabbage leaves (Brassica oleracea) are treated by dipping into the active compound preparation of the desired concentration and are populated with mustard beetle (Phaedon cochleariae) larvae while the leaves are still moist.
After the desired period, the destruction is determined in %. 100% means that all the beetle have been killed; 0% means that none of the beetle larvae have been killed.

[6] = Table 1, compounds of formula (I), only decimal values are logP
[7] = Table 2, tetrazolylanilines of formula (III)

| Molecule | logP (pH2) [1, 7] | other results |
| --- | --- | --- |
| Cn1nnnc1-c1ccc(N)c(Cl)c1 [1-methyl-(3-chloro-4-aminophenyl)-tetrazole] | – | chromatographic logP ([1]; pH 2): 1.17 |
| Nc1ccc(-c2nn[nH]n2)cc1Cl [5-(3-chloro-4-aminophenyl)-tetrazole] | – | chromatographic logP ([1]; pH 2): 1 |
| O=C(NC(=O)c1c(F)cccc1F)Nc1ccc(-c2nn[nH]n2)cc1Cl [Example 1, N-(2,6-difluorobenzoyl)-N′-(2-chloro-4-tetrazol-5-yl-phenyl)-urea] | – | chromatographic logP ([1]; pH 2): 2.13 |
| O=C(NC(=O)c1c(F)cccc1F)Nc1ccc(-c2nnn(C3CCCCO3)n2)cc1Cl (centres unmarked) [Example 2, N-(2,6-difluorobenzoyl)-N′-[2-chloro-4-(2-tetrahydropyran-2-yl-tetrazol-5-yl)-phenyl]-urea] | – | chromatographic logP ([1]; pH 2): 3.72 |
| CC(C)(C)n1nnc(-c2ccc(NC(=O)NC(=O)c3c(F)cccc3F)c(Cl)c2)n1 [Example 4] | – | destruction [2]: 100%; destruction (Heliothis virescens): 100%; destruction [3]: 100%; destruction [4]: 100%; destruction [5]: 100% |
| Cn1nnc(-c2ccc(NC(=O)NC(=O)c3c(F)cccc3F)c(Cl)c2)n1 [Example 5] | – | logP (pH2) [1, 6]: 2.88; destruction [4]: 100% |
| O=C(NC(=O)c1c(F)cccc1F)Nc1ccc(Cl)cc1-c1nn[nH]n1 [Example 6] | – | logP (pH2) [1, 6]: 2.16 |
| O=C(NC(=O)c1c(F)cccc1F)Nc1cc(Cl)c(-c2nn[nH]n2)cc1Cl [Example 7] | – | logP (pH2) [1, 6]: 2.30 |
| CC(C)(C)n1nnc(-c2ccc(NC(=O)NC(=O)c3c(F)cccc3Cl)c(Cl)c2)n1 [Example 10] | – | destruction [4]: 100%; destruction [5]: 100% |
| CC(C)(C)n1nnc(-c2cc(Cl)ccc2NC(=O)NC(=O)c2c(F)cccc2F)n1 [Example 11] | – | logP (pH2) [1, 6]: 4.20 |
| CCOCn1nnc(-c2ccc(NC(=O)NC(=O)c3c(F)cccc3F)c(Cl)c2)n1 [Example 14] | – | destruction [4]: 100% |
| CCCn1nnc(-c2ccc(NC(=O)NC(=O)c3c(F)cccc3F)c(Cl)c2)n1 [Example 15] | – | destruction [4]: 100% |
| CC(C)(C)n1nnc(-c2cc(Cl)c(NC(=O)NC(=O)c3c(F)cccc3F)cc2Cl)n1 [Example 16] | – | destruction [4]: 100%; destruction [5]: 100% |
| O=C(NC(=O)c1c(F)cccc1F)Nc1ccc(-c2nnn(C(F)F)n2)cc1Cl [Example 18] | – | destruction [4]: 100%; destruction [5]: 100% |
| O=C(NC(=O)c1c(F)cccc1F)Nc1ccc(-c2nnn(-c3ccccc3)n2)cc1Cl [Example 19] | – | logP (pH2) or m.p. (° C.) ([1]; pH 2): 4.63 |
| O=C(NC(=O)c1c(F)cccc1F)Nc1ccc(-c2nnnn2C(F)F)cc1Cl [Example 20] | – | destruction [4]: 100%; destruction [5]: 100% |
| CC(C)(C)n1nnc(-c2ccc(NC(=O)NC(=O)c3c(F)cccc3F)cc2Cl)n1 [Example 35] | – | logP (pH2) [1, 6]: 3.68 |
| CC(C)(C)n1nnc(-c2cc(Cl)ccc2N)n1 [Example a, 5-(2-amino-5-chlorophenyl)-2-tert-butyl-tetrazole] | – | chromatographic logP ([1]; pH 2): 3.58 |
| Nc1ccc(-c2nnn(Cc3ccc(Br)cc3)n2)cc1Cl [Example b, 5-(3-chloro-4-aminophenyl)-2-(4-bromobenzyl)-tetrazole] | – | chromatographic logP ([1]; pH 2): 3.52 |
| Cc1cc(-c2nn[nH]n2)cc(Cl)c1N [III-5] | 1.20 | – |
| Cn1nnc(-c2ccc(N)c(Cl)c2)n1 [III-6] | 1.70 | – |
| Nc1ccc(Cl)cc1-c1nn[nH]n1 [III-7] | 1.50 | – |
| Nc1cc(Cl)c(-c2nn[nH]n2)cc1Cl [III-8] | 1.16 | – |
| Nc1ccc(-c2nn[nH]n2)c(Cl)c1 [III-9] | 1.53 | – |
| COC(=O)Cn1nnc(-c2ccc(N)c(Cl)c2)n1 [III-10] | 1.92 | – |

| Molecule | logP (pH2) [1, 7] | other results |
| --- | --- | --- |
| CCOCn1nnc(-c2ccc(N)c(Cl)c2)n1 [III-11] | 2.34 | – |
| CCCn1nnc(-c2ccc(N)c(Cl)c2)n1 [III-12] | 2.52 | – |
| Nc1ccc(-c2nnn(C(F)F)n2)cc1Cl [III-14] | 2.08 | – |
| Nc1ccc(-c2nnn(-c3ccccc3)n2)cc1Cl [III-15] | 3.28 | – |
| Nc1ccc(-c2nnnn2C(F)F)cc1Cl [III-16] | 1.92 | – |
| CC(C)Cn1nnc(-c2ccc(N)c(Cl)c2)n1 [III-17] | 2.95 | – |
| Nc1ccc(-c2nnn(CCC(F)=C(F)F)n2)cc1Cl [III-18] | 2.68 | – |
| CC(C)(C)n1nnc(-c2cc(Cl)c(N)c(Cl)c2)n1 [III-19] | 3.81 | – |
| CC(C)Cn1nnc(-c2cc(Cl)c(N)c(Cl)c2)n1 [III-20] | 3.78 | – |
| CC(C)Cn1nnc(-c2cc(Cl)c(N)cc2Cl)n1 [III-21] | 3.15 | – |
| CCCn1nnc(-c2cc(Cl)c(N)cc2Cl)n1 [III-22] | 2.75 | – |
| CC(C)(C)n1nnc(-c2ccc(N)cc2)n1 [III-23] | 1.69 | – |
| CC(=O)OCCn1nnc(-c2ccc(N)c(Cl)c2)n1 [III-24] | 1.92 | – |
| Nc1c(Cl)cc(-c2nn[nH]n2)cc1Cl [III-25] | 1.40 | – |
| CC(C)(C)n1nnc(-c2ccc(N)c(Cl)c2)n1 [III-26] | 2.94 | – |
| Nc1cc(Cl)c(-c2nnn(C(F)F)n2)cc1Cl [III-28] | 2.69 | – |
| Nc1cc(Cl)c(-c2nnnn2C(F)F)cc1Cl [III-29] | 2.36 | – |
| CC(C)(C)n1nnc(-c2ccc(N)cc2Cl)n1 [III-31] | 2.42 | – |
| CC(C)(C)n1nnc(-c2ccc(N)cc2F)n1 [III-32] | 2.14 | – |
| Nc1ccc(-c2nnn(C(F)F)n2)cc1 [III-46] | 1.49 | – |
| Nc1ccc(-c2nnnn2C(F)F)cc1 [III-47] | 1.24 | – |
| Nc1ccc(-c2nnn(C(F)F)n2)c(Cl)c1 [III-48] | 2.09 | – |
| Nc1ccc(-c2nnnn2C(F)F)c(Cl)c1 [III-49] | 1.81 | – |
| Nc1ccc(-c2nnn(C(F)F)n2)c(F)c1 [III-50] | 1.84 | – |
| N-(2,6-difluorobenzoyl)-N′-[2-chloro-4-(1-methyl-tetrazol-5-yl]-urea [Example 3] | – | log P(pH2) ([1]; pH 2): 2.31 |
